# Laboratory results from US12648925B2, “Composition for preventing or treating cancer, containing manassantin A and immune checkpoint inhibitor or epithelial growth factor receptor inhibitor” (KYUNGPOOK NATIONAL UNIVERSITY INDUSTRY-ACADEMIC COOPERATION …, priority 2019, dated 2026).
# Tested on: Lewis lung carcinoma (LLC)
# Experiment: Hypoxic state (hypoxyprobe-1/PIMO) and CD31 microvessel density by immunohistochemistry in LLC allograft tumor
# Assay type: in vivo, C57BL/6J mouse
# Conditions: 2 mg/kg intraperitoneal on day 2, 4, 6, 8, 10; tumor extracted day 17; vs PBS control; FIG. 1
# Description: As a control, the same amount of phosphate buffered saline (PBS) was injected. In addition, to measure a hypoxic state inside the tumor on day 17, 60 mg/kg of hypoxyprobe-1™ (pimonidazole hydrochloride; PIMO, HPI) was administered by intraperitoneal injection, and after 90 minutes, the mouse was sacrificed to extract the tumor. In addition, immunohistochemistry (HC) analyses were performed using the obtained tumor tissue. More particularly, the obtained tumor was fixed with 3.7% paraformaldehyde (PFA) and then dehydrated by treatment with a 10 to 40% sucrose solution step by step. In addition, after increasing the osmotic permeability of cells by treatment with 0.3% Triton X-100 and blocking with 5% bovine serum albumin (BSA), a rat anti-CD31 (BD Biosciences) or Alexa Fluor 647-conjugated anti-HIF-1 alpha antibody (Abcam) was treated and reacted at 4° C. for 16 hours. The mouse treated with the HIF-1 alpha antibody was a mouse which was not treated with hypoxyprobe-1™. […] In addition, finally, a cell nucleus was stained with DAPI (Sigma-Aldrich) and observed using a confocal microscope, followed by quantifying a fluorescent value using ImageJ. […]
smiles,measurement,value
COc1ccc([C@@H](O)[C@@H](C)Oc2ccc([C@H]3O[C@H](c4ccc(O[C@H](C)[C@H](O)c5ccc(OC)c(OC)c5)c(OC)c4)[C@H](C)[C@H]3C)cc2OC)cc1OC [manassantin A],hypoxic state inside the tumor,significantly reduced
same,microvessel density (MVD) of CD31-positive vascular endothelial cells,significantly reduced
